From patent US20050158320A1, “Combinations for the treatment of proliferative diseases” (priority 2003, published 2005)
Like-named read-outs stand apart in the source and are kept apart here. Values belong to the compound of their own block, whether it stands above or below them.

What was measured:
[1] = target: T1, Recombinant HsEg5/KSP kinesin motor protein (Homo sapiens, UniProt P52732); test: cell free motor assay (Kinesin ATPase End Point Biochem Kit, microtubule activated ATPase activity); assay type: biochemical
T1 sequence (P52732 1-1056): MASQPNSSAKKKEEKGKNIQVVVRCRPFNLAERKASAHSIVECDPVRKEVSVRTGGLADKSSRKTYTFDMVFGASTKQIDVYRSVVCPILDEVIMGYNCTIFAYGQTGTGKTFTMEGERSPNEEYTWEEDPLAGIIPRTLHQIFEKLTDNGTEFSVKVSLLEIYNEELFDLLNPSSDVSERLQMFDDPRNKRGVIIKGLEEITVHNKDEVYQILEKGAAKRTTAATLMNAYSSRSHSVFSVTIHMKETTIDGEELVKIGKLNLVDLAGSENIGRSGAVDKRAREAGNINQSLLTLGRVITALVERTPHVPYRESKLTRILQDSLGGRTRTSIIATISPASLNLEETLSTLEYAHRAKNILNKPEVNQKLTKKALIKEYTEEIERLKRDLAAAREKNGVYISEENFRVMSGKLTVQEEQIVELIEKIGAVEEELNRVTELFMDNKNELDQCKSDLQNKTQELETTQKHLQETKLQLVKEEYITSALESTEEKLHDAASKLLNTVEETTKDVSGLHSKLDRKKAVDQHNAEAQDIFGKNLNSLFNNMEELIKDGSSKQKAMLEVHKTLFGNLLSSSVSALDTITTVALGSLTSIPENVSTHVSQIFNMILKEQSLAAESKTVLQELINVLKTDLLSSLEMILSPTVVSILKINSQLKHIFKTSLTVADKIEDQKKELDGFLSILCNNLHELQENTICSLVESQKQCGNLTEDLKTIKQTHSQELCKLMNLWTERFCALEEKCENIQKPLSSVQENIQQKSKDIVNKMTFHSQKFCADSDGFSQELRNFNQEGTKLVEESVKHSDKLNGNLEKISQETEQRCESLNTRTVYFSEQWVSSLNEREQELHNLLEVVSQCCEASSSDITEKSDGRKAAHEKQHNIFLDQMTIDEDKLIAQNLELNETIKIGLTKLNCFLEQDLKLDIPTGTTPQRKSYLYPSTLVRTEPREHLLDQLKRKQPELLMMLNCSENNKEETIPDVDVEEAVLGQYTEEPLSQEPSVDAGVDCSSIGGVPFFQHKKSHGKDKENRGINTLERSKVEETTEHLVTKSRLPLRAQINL
Procedure: This assay measures organic phosphate (Pi) generated during microtubule activated ATPase activity of kinesin motor proteins. Recombinant HsEg5/KSP kinesin motor protein activity was assayed using the Kinesin ATPase End Point Biochem Kit (Cytoskeleton, catalog # BK053) following the manufacturer's instructions for amounts of reaction buffer, ATP and microtubules. The amount of HsEg5/KSP kinesin protein was optimized to 0.8 μg per reaction and included where indicated. Each assay was performed in a total reaction volume of 30 μL in a clear 96 well ½ area plate (Coming Inc., Costar and cat # 3697) and included the following conditions: • 1. a reaction blank consisting of reaction buffer and ATP only; • 2. negative control reactions containing: • a. microtubules and ATP without kinesin protein or • b. kinesin HsEg5/KSP and ATP without microtubules; and • 3. experimental reactions containing ATP, kinesin, and microtubules with or without compound at the indicated final concentrations.
Reactions were pre-incubated for 15 minutes at room temperature prior to the addition of ATP. After ATP addition, reactions were allowed to proceed for 10 minutes at room temperature prior to termination by the addition of 70 μL of CytoPhos Reagent. Following a last 10-minute incubation at room temperature, reactions were quantitated by reading the absorbance at 650 nm on a spectrophotometer (Beckman Instruments, Inc., Model DU 530). Raw absorbance values were corrected by subtracting the absorbance of the blank. Absorbance was converted into Pi concentration by comparison with a standard Pi curve. Percent inhibition was calculated from Pi concentration according to the following formula: % Inhibition=(untreated-treated)/untreated×100. The arithmetic mean was generated from percent inhibition of experimental replicates.

[2] = system: Human colon adenocarcinoma cell line HCT116; test: anti-proliferation assay (Alamar Blue); assay type: cell-based; settings: read-out: percent inhibition (% I) of cell proliferation
Procedure: Cells were diluted in culture media such that 3000 cells were delivered in 20 μL of media into each assay well. […] Quantification, using an LJL Analyst AD reader (LJL Biosystems), was taken in the middle of the well with high attenuation, a 100 msec read time, an excitation filter at 530 nm, and an emission filter at 575 nm. For some experiments, quantification was performed using a Wallac Victor2 reader. Measurements were taken at the top of the well with stabilized energy lamp control; a 100 msec read time, an excitation filter at […], and an emission filter at 590 nm. No significant differences between plate readers were measured. The percent inhibition (% I) for each well was calculated using the following formula: % I=[(avg. untreated wells−treated well)/(avg. untreated wells)]×100 […] Negative inhibition values result from local variations in treated wells as compared to untreated wells.

PRL phosphatases = settings: Pathak et al., Mol. Cancer Ther. 2002; cited from earlier work

mitotic kinesin inhibition (in words) ([1]; cell free motor assay): mitotic kinesin inhibitor | inhibition at 1 µM ([1]; chlorpromazine 1 μM, mean, n = 4, read-out: Percent inhibition of kinesin motor activity): -5.51% | inhibition at 2 µM ([1]; chlorpromazine 2 μM, mean, n = 4, read-out: Percent inhibition of kinesin motor activity): -11.2% | inhibition at 4 µM ([1]; chlorpromazine 4 μM, mean, n = 4, read-out: Percent inhibition of kinesin motor activity): 17.4% | inhibition at 8 µM ([1]; chlorpromazine 8 μM, mean, n = 4, read-out: Percent inhibition of kinesin motor activity): 52.9% | inhibition at 16 µM ([1]; chlorpromazine 16 μM, mean, n = 4, read-out: Percent inhibition of kinesin motor activity): 85.8% | inhibition at 32 µM ([1]; chlorpromazine 32 μM, mean, n = 4, read-out: Percent inhibition of kinesin motor activity): 97.8% | inhibition at 64 µM ([1]; chlorpromazine 64 μM, mean, n = 4, read-out: Percent inhibition of kinesin motor activity): 105%
Compound: CN(C)CCCN1c2ccccc2Sc2ccc(Cl)cc21 [Chlorpromazine, chlorpromazine]
inhibition at 4 µM ([2]; HCT-116, chlorpromazine 4 μM, pentamidine 0 μM): 2.9% | inhibition at 6 µM ([2]; HCT-116, chlorpromazine 6 μM, pentamidine 0 μM): 0.11% | inhibition at 7.5 µM ([2]; HCT-116, chlorpromazine 7.5 μM, pentamidine 0 μM): 5.4% | inhibition at 9 µM ([2]; HCT-116, chlorpromazine 9 μM, pentamidine 0 μM): 4.1% | inhibition at 10 µM ([2]; HCT-116, chlorpromazine 10 μM, pentamidine 0 μM): 16% | inhibition at 12 µM ([2]; HCT-116, chlorpromazine 12 μM, pentamidine 0 μM): 22% | inhibition at 16 µM ([2]; HCT-116, chlorpromazine 16 μM, pentamidine 0 μM): 39% | inhibition at 20 µM ([2]; HCT-116, chlorpromazine 20 μM, pentamidine 0 μM): 56% | inhibition at 22 µM ([2]; HCT-116, chlorpromazine 22 μM, pentamidine 0 μM): 59%

Compound: N=C(N)c1ccc(OCCCCCOc2ccc(C(=N)N)cc2)cc1 [Pentamidine, pentamidine]
PRL phosphatase inhibition (in words) (PRL phosphatases): inhibitor of the PRL phosphatases | inhibition at 0.5 µM ([2]; HCT-116, chlorpromazine 0 μM, pentamidine 0.5 μM): 1.2% | inhibition at 1 µM ([2]; HCT-116, chlorpromazine 0 μM, pentamidine 1 μM): 1.9% | inhibition at 2 µM ([2]; HCT-116, chlorpromazine 0 μM, pentamidine 2 μM): 3.1% | inhibition at 4 µM ([2]; HCT-116, chlorpromazine 0 μM, pentamidine 4 μM): -0.77% | inhibition at 6 µM ([2]; HCT-116, chlorpromazine 0 μM, pentamidine 6 μM): 5% | inhibition at 9 µM ([2]; HCT-116, chlorpromazine 0 μM, pentamidine 9 μM): 9% | inhibition at 12 µM ([2]; HCT-116, chlorpromazine 0 μM, pentamidine 12 μM): 9.9% | inhibition at 15 µM ([2]; HCT-116, chlorpromazine 0 μM, pentamidine 15 μM): 16% | inhibition at 20 µM ([2]; HCT-116, chlorpromazine 0 μM, pentamidine 20 μM): 19%
